From patent publication US10131666B2, “Heterocyclic morphinan derivatives and use thereof” (Purdue Pharma L.P., priority 2014, dated 2018) come the findings set out here.

Assay [1] concerns the target T1, μ-opioid receptor (Homo sapiens, UniProt P35372).
T1 construct: host or cells: HEK-293; b235 lists HEK-293, CHO or U-2 OS)
Briefly: μ-opioid receptor [35S]GTPγS functional assay. In kind it is biochemical. As to conditions: for Emax: maximal effect relative to the effect elicited by DAMGO, HEK-293 cells. How it is done: [^35S]GTPγS functional assays were conducted using freshly thawed μ-receptor membranes prepared in-house from a cell line expressing recombinant t opioid receptor in a HEK-293, CHO or U-2 OS cell background, or purchased from a commercial source (Perkin Elmer, Shelton, Conn.; or DiscovRx, Fremont, Calif.). Assay reactions were prepared by sequentially adding the following reagents to binding buffer (100 mM NaCl, 10 mM MgCl2, 20 mM HEPES, pH 7.4) on ice (final concentrations indicated): membrane protein (0.026 mg/mL), saponin ([…]), GDP ([…]) and [^35S]GTPγS (0.20 nM; Perkin Elmer, Shelton, Conn.). The prepared membrane solution (190 μl/well) was transferred to 96-shallow well polypropylene plates containing 10 al of 20× concentrated stock solutions of the agonist [D-Ala^2, N-methyl-Phe^4 Gly-ol^5]-enkephalin (DAMGO) prepared in dimethyl sulfoxide (DMSO). Plates were incubated for 30 min at about 25° C. with shaking. Reactions were terminated by rapid filtration onto 96-well Unifilter GF/B filter plates (Perkin Elmer, Shelton, Conn.) using a 96-well tissue harvester (Perkin Elmer, Shelton, Conn.) followed by three filtration washes with 200 μl of ice-cold wash buffer (10 mM NaH2PO4, 10 mM Na2HPO4, pH 7.4). Filter plates were subsequently dried at 50° C. for 2-3 hours. BetaScint scintillation cocktail (Perkin Elmer, Shelton, Conn.) was added (50 μl/well) and plates were counted using a Packard Top-Count for 1 min/well. Data were analyzed using the sigmoidal dose-response curve fitting functions in GraphPad PRISM v. 3.0, or an in-house function for non-linear, sigmoidal dose-response curve-fitting.
μGTP EC50 is the concentration of a compound providing 50% of the maximal response for the compound at a μ-opioid receptor.
μ GTP Emax (%) is the maximal effect elicited by a compound relative to the effect elicited by DAMGO, a standard agonist. Generally, the μ GTP Emax (%) value measures the efficacy of a compound to treat or prevent pain or other Conditions.
(§1) In TABLE 2, activity response of certain Compounds of the Invention to the μ- and κ-opioid receptors was determined as described above for functional assays using HEK-293 cells.
On the technique in general: GTPγS resists hydrolysis and so accumulates on activated G proteins.

Assay [2] addresses T2, κ-opioid receptor (Homo sapiens, UniProt P41145). Briefly: κ-opioid receptor [35S]GTPγS functional assay. Details: expressed in transfected cells; host or cells: HEK-293 (in-house membranes). The following applies: for Emax: maximal effect relative to the effect elicited by U69,593, HEK-293 cells. It counts as biochemical. How it is done:
Functional [^35S]GTPγS binding assays were conducted as follows. K opioid receptor membrane solution was prepared by sequentially adding final concentrations of 0.026 μg/μl κ membrane protein (in-house), 10 μg/mL saponin, 3 μM GDP and 0.20 nM [^35S]GTPγS to binding buffer (100 mM NaCl, 10 mM MgCl2, 20 mM HEPES, pH 7.4) on ice. The prepared membrane solution (190 μl/well) was transferred to 96-shallow well polypropylene plates containing 10 μl of 20× concentrated stock solutions of agonist prepared in DMSO. Plates were incubated for 30 min at a temperature of about 25° C. with shaking. Reactions were terminated by rapid filtration onto 96-well Unifilter GF/B filter plates (Perkin Elmer, Shelton, Conn.) using a 96-well tissue harvester (Packard) and followed by three filtration washes with 200 μl ice-cold binding buffer (10 mM NaH2PO4, 10 mM Na2HPO4, pH 7.4). Filter plates were subsequently dried at 50° C. for 2-3 hours. Fifty μl/well scintillation cocktail (Perkin Elmer, Shelton, Conn.) was added and plates were counted in a Packard Top-Count for 1 min/well.
κ GTP EC50 is the concentration of a compound providing 50% of the maximal response for the compound at a κ receptor.
κ GTP Emax (%) is the maximal effect elicited by a compound relative to the effect elicited by U69,593.
as §1

Assay [3] addresses T2, κ-opioid receptor. Briefly: κ-opioid receptor radioligand dose displacement binding assay ([3H]-U69,593). Also noted: expressed in transfected cells; host or cells: HEK-293 (in-house membrane prep). How it is done: Membranes from HEK-293 cells, CHO or U-2 OS cells expressing the recombinant human kappa opioid receptor (K) were prepared by lysing cells in ice cold hypotonic buffer (2.5 mM MgCl2, 50 mM HEPES, pH 7.4) (10 mL/10 cm dish) followed by homogenization with a tissue grinder/Teflon pestle. Membranes were collected by centrifugation at 30,000×g for 15 min at 4° C. and pellets were resuspended in hypotonic buffer to a final concentration of 1-3 mg/mL. Protein concentrations were determined using the BioRad protein assay reagent with bovine serum albumen as standard. Aliquots of κ receptor membranes were stored at −80° C.
Radioligand dose displacement assays used 0.4 nM [^3H]-U69,593 (GE Healthcare, Piscataway, N.J.; 40 Ci/mmole) with 15 μg membrane protein (recombinant K opioid receptor expressed in HEK 293 cells; in-house prep) in a final volume of 200 μl binding buffer (5% DMSO, 50 mM Trizma base, pH 7.4). Non-specific binding was determined in the presence of 10 μM unlabeled naloxone or U69,593. All reactions were performed in 96-well polypropylene plates for 1 hour at a temperature of about 25° C. Binding reactions were terminated by rapid filtration onto 96-well Unifilter GF/C filter plates (Perkin Elmer, Shelton, Conn.) presoaked in 0.5% polyethylenimine (Sigma). Harvesting was performed using a 96-well tissue harvester (Perkin Elmer, Shelton, Conn.) followed by five filtration washes with 200 μl ice-cold binding buffer. Filter plates were subsequently dried at 50° C. for 1-2 hours. Fifty μl/well scintillation cocktail (Perkin Elmer, Shelton, Conn.) was added and plates were counted in a Packard Top-Count for 1 min/well.
In TABLE 1, binding affinity of certain Compounds of the Invention to the κ-opioid receptors was determined as described above.

A word on the EC50: it is the concentration at which the effect is half-maximal. The low end stands for an effect from little substance, the high end for a need for much substance. In general, Emax refers to the maximal effect, on the per cent scale that the assay sets. Broadly, the Ki is a dissociation constant, usually derived from enzyme kinetics or from competition with a known ligand. Higher therefore signals a looser hold on the target.

SMILES strings stand for the structures.

T1 sequence (P35372 whole entry, species assumed): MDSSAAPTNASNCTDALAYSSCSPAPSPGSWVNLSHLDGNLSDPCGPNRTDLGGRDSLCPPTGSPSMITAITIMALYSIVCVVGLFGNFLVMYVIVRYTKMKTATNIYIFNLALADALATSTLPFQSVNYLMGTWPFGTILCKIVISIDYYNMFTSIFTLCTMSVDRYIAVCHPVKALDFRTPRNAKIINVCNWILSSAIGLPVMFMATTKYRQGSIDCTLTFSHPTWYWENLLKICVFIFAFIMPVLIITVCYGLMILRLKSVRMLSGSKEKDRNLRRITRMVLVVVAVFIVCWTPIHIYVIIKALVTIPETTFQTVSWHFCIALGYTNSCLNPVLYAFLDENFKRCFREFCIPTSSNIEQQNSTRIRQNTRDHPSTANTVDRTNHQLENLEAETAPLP
T2 sequence (P41145 whole entry): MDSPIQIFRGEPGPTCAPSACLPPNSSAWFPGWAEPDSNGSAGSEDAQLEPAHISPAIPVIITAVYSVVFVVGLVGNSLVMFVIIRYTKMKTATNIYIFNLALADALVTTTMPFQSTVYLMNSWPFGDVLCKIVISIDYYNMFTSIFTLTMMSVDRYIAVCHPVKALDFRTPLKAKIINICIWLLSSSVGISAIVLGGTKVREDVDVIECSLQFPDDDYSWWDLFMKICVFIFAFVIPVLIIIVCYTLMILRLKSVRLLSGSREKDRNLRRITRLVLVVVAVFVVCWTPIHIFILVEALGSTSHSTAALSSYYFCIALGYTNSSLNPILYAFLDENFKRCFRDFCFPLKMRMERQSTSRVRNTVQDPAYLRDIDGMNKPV

With `COc1ccc2c(c1)[C@]13CCN(C)[C@H](C2)[C@@H]1Cc1cc(C(=O)O)c(=O)[nH]c1C3` [Compound 8, (6R,6aR,12aS)-2-methoxy-15-methyl-10-oxo-6,6a,7,10,11,12-hexahydro-5H-6,12a-(epiminoethano)naphtho[2,1-g]quinoline-9-carboxylic acid], in assay [1], the midpoint of the response, the EC50, lay at 13300 ± 1800 nM and the Emax came to 40.7 ± 5.04%.
The corresponding values for `CN1CC[C@]23Cc4[nH]c(=O)c(C(=O)NCc5ccccc5)cc4C[C@H]2[C@H]1Cc1ccc(O)cc13` [Compound 11, (6R,6aR,12aS)-N-benzyl-2-hydroxy-15-methyl-10-oxo-6,6a,7,10,11,12-hexahydro-5H-6,12a-(epiminoethano)naphtho[2,1-g]quinoline-9-carboxamide] are 332 ± 61.7 nM and 32.3 ± 0.88%.
In assay [1], `COC(=O)c1cc2c([nH]c1=O)C[C@]13CCN[C@H](Cc4ccc(OC)cc41)[C@]3(O)C2` [Compound 4, Methyl (6R,6aS,12aR)-6a-hydroxy-2-methoxy-10-oxo-6,6a,7,10,11,12-hexahydro-5H-6,12a-(epiminoethano)naphtho[2,1-g]quinoline-9-carboxylate] came in with a concentration giving a half-maximal response (EC50) above 20000 nM and an Emax of 20 ± 2.08%.
The like results for `NC(=O)c1cc2c([nH]c1=O)C[C@]13CCN[C@H](Cc4ccc(O)cc41)[C@]3(O)C2` [Compound 6] were, in that order, 2900 ± 868 nM and 23 ± 1%.
On to `CN(C(=O)c1cc2c([nH]c1=O)C[C@]13CCN(C)[C@H](Cc4ccc(O)cc41)[C@@H]3C2)C1CCCCC1` [Compound 15, (6R,6aR,12aS)—N-cyclohexyl-2-hydroxy-N,15-dimethyl-10-oxo-6,6a,7,10,11,12-hexahydro-5H-6,12a-(epiminoethano)naphtho[2,1-g]quinoline-9-carboxamide], for which, in assay [1], the half-maximal effective concentration (EC50) is 289 ± 34.8 nM and the Emax was determined as 29.7 ± 3.28%.
The like results for `COc1ccc2c(c1)[C@]13CCN(C(=O)OC(C)(C)C)[C@H](C2)[C@]1(O)Cc1cc(C(=O)O)c(=O)[nH]c1C3` [Compound 20, (6R,6aS,12aR)-15-(tert-butoxycarbonyl)-6a-hydroxy-2-methoxy-10-oxo-6,6a,7,10,11,12-hexahydro-5H-6,12a-(epiminoethano)naphtho[2,1-g]quinoline-9-carboxylic acid] were, in that order, above 20000 nM and 3%.
Consider `CN1CC[C@]23Cc4[nH]c(=O)c(C(=O)N5CCCC5)cc4C[C@H]2[C@H]1Cc1ccc(O)cc13` [Compound 12, (6R,6aR,12aS)-2-hydroxy-15-methyl-9-(pyrrolidine-1-carbonyl)-6,6a,7,12-tetrahydro-5H-6,12a-(epiminoethano)naphtho[2,1-g]quinolin-10(11H)-one], for which the concentration giving a half-maximal response (EC50) is 145 ± 27.9 nM in assay [1] and 24.2 ± 11.9 nM in assay [2]. In addition, the values for the maximum response (Emax) in assay [1] and in assay [2] were 35.3 ± 1.67% and 9.5 ± 0.5%, respectively. Also, the Ki in assay [3] came to 14.4 ± 2.81 nM.
Turning to `CN1CC[C@]23Cc4[nH]c(=O)c(C(=O)N[C@@H]5c6ccccc6C[C@@H]5O)cc4C[C@H]2[C@H]1Cc1ccc(O)cc13` [Compound 13, (6R,6aR,12aS)-2-hydroxy-N-((1R,2S)-2-hydroxy-2,3-dihydro-1H-inden-1-yl)-15-methyl-10-oxo-6,6a,7,10,11,12-hexahydro-5H-6,12a-(epiminoethan)naphth[2-g]quinolinone-9-carboxamide], in assay [1], the midpoint of the response, the EC50, lay at 484 ± 113 nM and the Emax was found to be 34 ± 3.21%.
Turning to `COC(=O)c1cc2c([nH]c1=O)C[C@]13CCN(C(=O)OC(C)(C)C)[C@H](Cc4ccc(OC)cc41)[C@]3(O)C2` [Compound 3, 15-(tert-Butyl) 9-methyl (6R,6aS,12aR)-6a-hydroxy-2-methoxy-10-oxo-6,6a,7,10,11,12-hexahydro-5H-6,12a-(epiminoethano)naphtho[2,1-g]quinoline-9,15-dicarboxylate], in assay [1], the 50% effective concentration (EC50) is above 20000 nM and the Emax was determined as 0%.
In assay [1], `CCn1c2c(cc(C(=O)N3Cc4ccccc4C3)c1=O)C[C@@]1(O)[C@H]3Cc4ccc(O)cc4[C@@]1(CCN3C)C2` [Compound 19, (6R,6aS,12aR)-11-ethyl-2,6a-dihydroxy-9-(isoindoline-2-carbonyl)-15-methyl-6,6a,7,12-tetrahydro-5H-6,12a-(epiminoethano)naphtho[2,1-g]quinolin-10(11H)-one] yielded a concentration giving a half-maximal response (EC50) of 288 ± 49.6 nM and an Emax of 30.8 ± 2.31%.
For the molecule `CN1CC[C@]23Cc4[nH]c(=O)c(C(=O)N5Cc6ccccc6C5)cc4C[C@H]2[C@H]1Cc1ccc(O)cc13` [Compound 16, (6R,6aR,12aS)-2-hydroxy-9-(isoindoline-2-carbonyl)-15-methyl-6,6a,7,12-tetrahydro-5H-6,12a-(epiminoethano)naphtho[2,1-g]quinolin-10(11H)-one], the half-maximal effective concentration (EC50) was 40.2 ± 11.5 nM in assay [1] and above 20000 nM in assay [2]. Further, the results for the Emax in assay [1] and in assay [2] were 47 ± 2.65% and 0%, respectively. The molecule further registered a Ki in assay [3] of 1.41 ± 0.52 nM.
As for `CN1CC[C@]23Cc4[nH]c(=O)c(C(=O)N5CCS(=O)(=O)CC5)cc4C[C@H]2[C@H]1Cc1ccc(O)cc13` [Compound 18, (6R,6aR,12aS)-9-(1,1-dioxidothiomorpholine-4-carbonyl)-2-hydroxy-15-methyl-6,6a,7,12-tetrahydro-5H-6,12a-(epiminoethano)naphtho[2,1-g]quinolin-10(11H)-one], in assay [1], the concentration for a half-maximal effect (EC50) worked out at 462 ± 88.4 nM and the maximal response (Emax) turned out to be 33.2 ± 3.3%.
The like results for `CN1CC[C@]23Cc4[nH]c(=O)c(C(=O)N[C@H]5c6ccccc6C[C@H]5O)cc4C[C@H]2[C@H]1Cc1ccc(O)cc13` [Compound 14, (6R,6aR,12aS)-2-hydroxy-N-((1S,2R)-2-hydroxy-2,3-dihydro-1H-inden-yl)-15-methyl-10-oxo-6,6a,7,10,11,12-hexahydro-5H-6,12a-(epiminoethano)naphtho[2,1-g]quinoline-9-carboxamide] were, in that order, 432 ± 135 nM and 34 ± 2.31%.
